Source: ChEMBL document CHEMBL1155006, “Anti-retroviral and cytostatic activity of 2',3'-dideoxyribonucleoside 3'-disulfides” (Bioorg Med Chem, 2008)

How the values were obtained:
[1] = Chemical stability assessed as half life in presence of dithiothreitol; format: physicochemical
[2] = Cytotoxicity against human CEM/0 cells; format: cell-based, CCRF-CEM
[3] = system: Moloney murine sarcoma virus; assay: Inhibition of murine sarcoma virus-induced transformation of mouse embryo fibroblast C3H/3T3 cells after 6 days; details: C3H/3T3, 144 h
[4] = system: Human immunodeficiency virus 2; assay: Antiviral activity against HIV2 ROD in TK1 deficient human CEM cells assessed as inhibition of virus-induced cytopathogenicity; format: functional, organism-based; details: Human immunodeficiency virus 2, ROD, CCRF-CEM
[5] = Chemical stability assessed as half life at pH 7.2 in methanol-water mixture; format: physicochemical
[6] = Cytotoxicity against human Molt4/C8; format: functional, cell-based; details: MOLT-4
[7] = system: Human immunodeficiency virus 2; assay: Antiviral activity against HIV2 ROD in CEM/0 cells assessed as inhibition of virus-induced cytopathogenicity; format: functional, organism-based; details: Human immunodeficiency virus 2, ROD, CCRF-CEM
[8] = system: Human immunodeficiency virus 1; assay: Antiviral activity against HIV1 3B in CEM/0 cells assessed as inhibition of virus-induced cytopathogenicity; format: functional, organism-based; details: Human immunodeficiency virus 1, 3B, CCRF-CEM
[9] = biological target: T1, Thymidine kinase, cytosolic (Homo sapiens, UniProt P04183); assay: Inhibition of recombinant TK1-mediated phosphorylation of [CH3-3H]deoxythymidine
T1 sequence (P04183 whole entry): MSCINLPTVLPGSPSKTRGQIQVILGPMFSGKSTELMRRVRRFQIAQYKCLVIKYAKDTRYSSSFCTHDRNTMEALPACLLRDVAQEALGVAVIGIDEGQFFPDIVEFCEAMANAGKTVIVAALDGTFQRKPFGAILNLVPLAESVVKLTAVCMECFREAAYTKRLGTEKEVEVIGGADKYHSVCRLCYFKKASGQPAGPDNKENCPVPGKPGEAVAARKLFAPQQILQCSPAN

[10] = system: Human immunodeficiency virus 1; assay: Antiviral activity against HIV1 in CEM cells assessed as reduction of viral replication at 5 to 10 uM; format: functional, CCRF-CEM; design: scale not given: the % may be the effect or the level left
[11] = biological target: T1, Thymidine kinase, cytosolic; assay: Inhibition of recombinant TK1-mediated phosphorylation of [CH3-3H]deoxythymidine in presence of dithiothreitol
[12] = system: Human immunodeficiency virus 1; assay: Antiviral activity against HIV1 in human MT4 cells; format: functional, organism-based; details: Human immunodeficiency virus 1, MT4
[13] = Cytotoxicity against human MT4 cells; format: cell-based

Row | half-life [1] [min] | EC50 [4] [µM] | half-life [5] [min] | EC50 [7] [µM] | EC50 [8] [µM] | IC50 [9] [µM] | IC50 [11] [µM] | EC50 [12] [µM] | Compound | CC50 [2] [µM] | EC50 [3] [µM] | IC50 [6] [µM] | Activity [10] [%] | CC50 [13] [µM]
1 | < 480 | > 50 | < 5 | 12 | 12 | 73 | 333 |  | CSS[C@H]1C[C@H](n2cc(C)c(=O)[nH]c2=O)O[C@@H]1CO | 102 | 8.3 | 66 | 50 | 
2 |  |  |  | ≥ 50 | ≥ 50 |  |  |  | CSS[C@H]1C[C@H](n2cc(Br)c(=O)[nH]c2=O)O[C@@H]1CO | 103 |  |  |  | 
3 |  | 45 | < 5 | 14 | 10 |  |  |  | CSS[C@H]1C[C@H](n2ccc(N)nc2=O)O[C@@H]1CO | 111 | 48 | 149 |  | 
4 |  |  |  | ≥ 50 | > 50 |  |  |  | CSS[C@H]1C[C@H](n2ccc(=O)[nH]c2=O)O[C@@H]1CO | 170 |  |  |  | 
5 | < 480 | > 50 | < 5 | 15 | 12.5 |  |  |  | C=CCSS[C@H]1C[C@H](n2cc(C)c(=O)[nH]c2=O)O[C@@H]1CO | 53 | 2.2 | 34 |  | 
6 | < 480 | > 50 | < 5 | 14 | 13.5 | 18 | 405 |  | Cc1cn([C@H]2C[C@H](SSCCO)[C@@H](CO)O2)c(=O)[nH]c1=O | 347 | 5.9 | 128 |  | 
7 | < 10 | ≥ 10 | < 5 | 7.3 | 8 |  |  |  | Cc1cn([C@H]2C[C@H](SSc3ccc([N+](=O)[O-])cc3)[C@@H](CO)O2)c(=O)[nH]c1=O | 23 | 0.89 | 29 |  | 
8 | < 480 | 150 | < 5 | 27.5 | 20 | 10 | 418 |  | Cc1cn([C@H]2C[C@H](SSCCN)[C@@H](CO)O2)c(=O)[nH]c1=O | 437 | 63 | 163 |  | 
9 | < 480 | > 10 | < 5 | > 10 | 8 |  |  |  | CCCCSS[C@H]1C[C@H](n2cc(C)c(=O)[nH]c2=O)O[C@@H]1CO | 23.3 | 1 | 28 |  | 
10 | < 90 | 22.5 | < 5 | 17.5 | 20 | 13 | 365 |  | Cc1cn([C@H]2C[C@H](SSC(Cl)(Cl)Cl)[C@@H](CO)O2)c(=O)[nH]c1=O | 103 | > 20 | 55 |  | 

Second part, the molecule before the results:

Row | Compound | half-life [1] [min] | EC50 [4] [µM] | half-life [5] [min] | EC50 [7] [µM] | EC50 [8] [µM] | IC50 [9] [µM] | IC50 [11] [µM] | EC50 [12] [µM] | CC50 [2] [µM] | EC50 [3] [µM] | IC50 [6] [µM] | Activity [10] [%] | CC50 [13] [µM]
11 | Cc1cn([C@H]2C[C@H](SSc3ccccc3[N+](=O)[O-])[C@@H](CO)O2)c(=O)[nH]c1=O | < 10 | > 10 | < 5 | > 10 | 10 |  |  |  | 18.5 | 1.1 | 31 |  | 
12 | C[C@H](Cn1cnc2c(N)ncnc21)OCP(=O)(O)O [TENOFOVIR ANHYDROUS] |  |  |  |  | 5.5 |  |  |  |  | 0.23 |  |  | 
13 | O=c1nc(O)ccn1[C@H]1C[C@H](SS[C@H]2C[C@H](n3ccc(O)nc3=O)O[C@@H]2CO)[C@@H](CO)O1 |  |  |  | > 250 | > 250 |  |  |  | ≥ 250 |  |  |  | 
14 | Cc1cn([C@H]2C[C@H](SS[C@H]3C[C@H](n4cc(C)c(O)nc4=O)O[C@@H]3CO)[C@@H](CO)O2)c(=O)nc1O |  |  |  |  |  |  |  | 16 |  |  |  |  | 34
15 | CCCCCCCCSS[C@H]1C[C@H](n2cc(C)c(=O)[nH]c2=O)O[C@@H]1CO | < 480 | > 10 | < 5 | 4.5 | 20 |  |  |  | 21 |  | 26 |  | 
16 | Nc1ccn(C2C[C@H](S)[C@@H](CO)O2)c(=O)n1 (single isomer, unassigned) |  |  |  |  |  |  |  | 20 |  |  |  |  | 
17 | O=c1[nH]c(=O)n([C@H]2C[C@H](SS[C@H]3C[C@H](n4cc(Br)c(=O)[nH]c4=O)O[C@@H]3CO)[C@@H](CO)O2)cc1Br |  |  |  | ≥ 250 | 127 |  |  |  | > 250 |  |  |  | 
18 | CCCCCCSS[C@H]1C[C@H](n2cc(C)c(=O)[nH]c2=O)O[C@@H]1CO | < 480 | > 10 | < 5 | 6.5 | 20 |  |  |  | 39 |  | 27 |  | 
19 | Nc1ncnc2c1ncn2CCOCP(=O)(O)O [ADEFOVIR] |  |  |  |  |  |  |  |  |  | 0.53 |  |  | 
20 | Nc1ccn([C@H]2C[C@H](SS[C@H]3C[C@H](n4ccc(N)nc4=O)O[C@@H]3CO)[C@@H](CO)O2)c(=O)n1 |  |  |  | 65 | 73 |  |  |  | 216 |  |  |  | 
21 | Cc1cn([C@H]2C[C@H](SSCCCCCCO)[C@@H](CO)O2)c(=O)[nH]c1=O | < 480 | > 50 | < 5 | 15 | 15 |  |  |  | 52 |  | 42 |  | 
